Assay results from PubChem BioAssay AID1963423 (Molecular Pharmacology Branch, DTP, NCI, 2024).

Test system: 439559-082-T-J2-PDC complex spheroid growth
Assay: Anticancer human tumor 439559-082-T-J2-PDC patient-derived colon adenocarcinoma cell line growth inhibition [Asc]
Details: for IC50: curve of first compound; for viability, T/C: stronger effect = lower value
Outline: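 Complex spheroids combining tumor cells with HUVEC endothelial cells and human MSCs, at 37 degrees C, 5% CO2; agents tested alone or combined, half-log dilutions from at or near clinical Cmax, or 10 microM if Cmax unknown.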

[1] = second compound 0.03 µM, first compound 0.0316 µM
[2] = second compound 0.03 µM, first compound 0.1 µM
[3] = second compound 0.03 µM, first compound 0.316 µM
[4] = second compound 0.03 µM, first compound 1 µM
[5] = second compound 0.03 µM, first compound 3.16 µM
[6] = second compound 0.03 µM, first compound 10 µM
[7] = second compound 0.0949 µM, first compound 0.0316 µM
[8] = second compound 0.0949 µM, first compound 0.1 µM
[9] = second compound 0.0949 µM, first compound 0.316 µM
[10] = second compound 0.0949 µM, first compound 1 µM
[11] = second compound 0.0949 µM, first compound 3.16 µM
[12] = second compound 0.0949 µM, first compound 10 µM
[13] = second compound 0.3 µM, first compound 0.0316 µM
[14] = second compound 0.3 µM, first compound 0.1 µM
[15] = second compound 0.3 µM, first compound 0.316 µM
[16] = second compound 0.3 µM, first compound 1 µM
[17] = second compound 0.3 µM, first compound 3.16 µM
[18] = second compound 0.3 µM, first compound 10 µM
[19] = second compound 0.949 µM, first compound 0.0316 µM
[20] = second compound 0.949 µM, first compound 0.1 µM
[21] = second compound 0.949 µM, first compound 0.316 µM
[22] = second compound 0.949 µM, first compound 1 µM
[23] = second compound 0.949 µM, first compound 3.16 µM
[24] = second compound 0.949 µM, first compound 10 µM
[25] = second compound 3 µM, first compound 0.0316 µM
[26] = second compound 3 µM, first compound 0.1 µM
[27] = second compound 3 µM, first compound 0.316 µM
[28] = second compound 3 µM, first compound 1 µM
[29] = second compound 3 µM, first compound 3.16 µM
[30] = second compound 3 µM, first compound 10 µM
[31] = second compound 0.03 µM, first compound 0.00316 µM
[32] = second compound 0.03 µM, first compound 0.01 µM
[33] = second compound 0.0949 µM, first compound 0.00316 µM
[34] = second compound 0.0949 µM, first compound 0.01 µM
[35] = second compound 0.3 µM, first compound 0.00316 µM
[36] = second compound 0.3 µM, first compound 0.01 µM
[37] = second compound 0.949 µM, first compound 0.00316 µM
[38] = second compound 0.949 µM, first compound 0.01 µM
[39] = second compound 3 µM, first compound 0.00316 µM
[40] = second compound 3 µM, first compound 0.01 µM
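Further: spheroids exposed to agents for 7 days starting day 3 after seeding.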
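Wherever viability, T/C is given: percent of DMSO vehicle control viability with 100% = vehicle.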

Row | IC50 (second compound 0.03 µM) | IC50 (second compound 0.0949 µM) | IC50 (second compound 0.3 µM) | IC50 (second compound 0.949 µM) | IC50 (second compound 3 µM) | SMILES | viability, T/C [1] | viability, T/C [2] | viability, T/C [3] | viability, T/C [4] | viability, T/C [7] | viability, T/C [8] | viability, T/C [9] | viability, T/C [10] | viability, T/C [13] | viability, T/C [14] | viability, T/C [15] | viability, T/C [16] | viability, T/C [19] | viability, T/C [20] | viability, T/C [21] | further results
1 | 1160 nM | 2200 nM | 1630 nM | 2190 nM | 593 nM | C#Cc1c(F)ccc2cc(O)cc(-c3ncc4c(N5CC6CCC(C5)N6)nc(OCC56CCCN5CC(F)C6)nc4c3F)c12 (stereo not given) + CCN1C(C(=O)NC23CCC(C(=O)O)(CC2)CC3)C(c2cccc(Cl)c2F)C2(C(=O)Nc3cc(Cl)ccc32)C12CCCCC2 | 88% | 81.7% | 64% | 50% | 88.8% | 84.8% | 74.5% | 55.2% | 88.5% | 83.5% | 73.4% | 51.2% | 103% | 80.8% | 72.8% | viability, T/C [5]: 48.4%; viability, T/C [6]: 40%; viability, T/C [11]: 49.7%; viability, T/C [12]: 36.2%; viability, T/C [17]: 49.3%; viability, T/C [18]: 39.3%; viability, T/C [22]: 55.7%; viability, T/C [23]: 48.2%; viability, T/C [24]: 36.9%; viability, T/C [25]: 73.6%; viability, T/C [26]: 74.3%; viability, T/C [27]: 56.6%; viability, T/C [28]: 45.2%; viability, T/C [29]: 44.9%; viability, T/C [30]: 37.8%
2 | 6630 nM | 5800 nM | 6300 nM | 6350 nM | 5120 nM | C=C(F)C(=O)N1CCN(c2nc(OCC3CCCN3C)nc3c2CCN(c2cccc4cccc(Cl)c24)C3)CC1CC#N (stereo not given) + CCN1C(C(=O)NC23CCC(C(=O)O)(CC2)CC3)C(c2cccc(Cl)c2F)C2(C(=O)Nc3cc(Cl)ccc32)C12CCCCC2 | 102% | 96.2% | 116% | 93% | 109% | 112% | 107% | 96.7% | 92% | 113% | 103% | 90.5% | 104% | 103% | 105% | viability, T/C [5]: 92.1%; viability, T/C [6]: 27%; viability, T/C [11]: 82.8%; viability, T/C [12]: 22.3%; viability, T/C [17]: 85%; viability, T/C [18]: 27.5%; viability, T/C [22]: 98.2%; viability, T/C [23]: 85.7%; viability, T/C [24]: 26.7%; viability, T/C [25]: 88.3%; viability, T/C [26]: 102%; viability, T/C [27]: 96.3%; viability, T/C [28]: 84.5%; viability, T/C [29]: 80.2%; viability, T/C [30]: 10.2%
3 | > 10000 nM | > 10000 nM | > 10000 nM | > 10000 nM | > 10000 nM | C=CC(=O)N1CCN(c2nc(=O)n(-c3c(C)ccnc3C(C)C)c3nc(-c4c(O)cccc4F)c(F)cc23)C(C)C1 (stereo not given) + CCN1C(C(=O)NC23CCC(C(=O)O)(CC2)CC3)C(c2cccc(Cl)c2F)C2(C(=O)Nc3cc(Cl)ccc32)C12CCCCC2 | 108% | 106% | 108% | 96.5% | 103% | 106% | 110% | 93.2% | 103% | 103% | 110% | 89.7% | 102% | 110% | 117% | viability, T/C [5]: 107%; viability, T/C [6]: 98.6%; viability, T/C [11]: 101%; viability, T/C [12]: 103%; viability, T/C [17]: 100%; viability, T/C [18]: 109%; viability, T/C [22]: 93.8%; viability, T/C [23]: 99%; viability, T/C [24]: 104%; viability, T/C [25]: 94.7%; viability, T/C [26]: 94.6%; viability, T/C [27]: 107%; viability, T/C [28]: 85.7%; viability, T/C [29]: 90%; viability, T/C [30]: 91.8%
4 | > 1000 nM | > 1000 nM | > 1000 nM | > 1000 nM | > 1000 nM | CNC(C)C(=O)NC1CN(S(=O)(=O)c2cccc(S(=O)(=O)N3CCC4CCC(C(=O)NC(c5ccccc5)c5ccccc5)N4C(=O)C(NC(=O)C(C)NC)C3)c2)CCC2CCC(C(=O)NC(c3ccccc3)c3ccccc3)N2C1=O (stereo not given) + CCN1C(C(=O)NC23CCC(C(=O)O)(CC2)CC3)C(c2cccc(Cl)c2F)C2(C(=O)Nc3cc(Cl)ccc32)C12CCCCC2 | 109% | 95.5% | 102% | 88% | 106% | 96.8% | 93% | 84.6% | 113% | 94.8% | 84.7% | 82.5% | 126% | 101% | 92.8% | viability, T/C [31]: 104%; viability, T/C [32]: 110%; viability, T/C [33]: 109%; viability, T/C [34]: 110%; viability, T/C [35]: 109%; viability, T/C [36]: 105%; viability, T/C [37]: 103%; viability, T/C [38]: 113%; viability, T/C [22]: 91.5%; viability, T/C [39]: 99.1%; viability, T/C [40]: 102%; viability, T/C [25]: 109%; viability, T/C [26]: 93.1%; viability, T/C [27]: 75%; viability, T/C [28]: 77.7%
5 | > 1000 nM | > 1000 nM | > 1000 nM | > 1000 nM | > 1000 nM | COc1c(OCCCN2CCOCC2)ccc2c3n(c(=NC(=O)c4cnc(N)nc4)nc12)CCN3 + CCN1C(C(=O)NC23CCC(C(=O)O)(CC2)CC3)C(c2cccc(Cl)c2F)C2(C(=O)Nc3cc(Cl)ccc32)C12CCCCC2 | 94.1% | 71.7% | 63.3% | 57.4% | 90.7% | 69% | 67.3% | 60.8% | 89.4% | 68.7% | 59.7% | 60.9% | 96.6% | 69.5% | 60.6% | viability, T/C [31]: 98.5%; viability, T/C [32]: 98.3%; viability, T/C [33]: 96.4%; viability, T/C [34]: 96.9%; viability, T/C [35]: 88.9%; viability, T/C [36]: 99.9%; viability, T/C [37]: 95.8%; viability, T/C [38]: 98.3%; viability, T/C [22]: 63.1%; viability, T/C [39]: 80.1%; viability, T/C [40]: 83.8%; viability, T/C [25]: 93.2%; viability, T/C [26]: 63%; viability, T/C [27]: 59%; viability, T/C [28]: 55.2%
